According to US10794932B2, “Biosensor for the detection of a biological target, and method for manufacturing the same” (The Governing Council of The University of Toronto, priority 2016, dated 2020):

Target: T1, 'rmTLR1 and 2' mixture (Mus musculus, UniProt Q9EPQ1+Q9QUN7)
T1 construct: Fc (chimera); purchased R&D Systems RDS1476TR050 + RDS1530TR050
T1 sequence (Q9EPQ1 26-582 limits assumed): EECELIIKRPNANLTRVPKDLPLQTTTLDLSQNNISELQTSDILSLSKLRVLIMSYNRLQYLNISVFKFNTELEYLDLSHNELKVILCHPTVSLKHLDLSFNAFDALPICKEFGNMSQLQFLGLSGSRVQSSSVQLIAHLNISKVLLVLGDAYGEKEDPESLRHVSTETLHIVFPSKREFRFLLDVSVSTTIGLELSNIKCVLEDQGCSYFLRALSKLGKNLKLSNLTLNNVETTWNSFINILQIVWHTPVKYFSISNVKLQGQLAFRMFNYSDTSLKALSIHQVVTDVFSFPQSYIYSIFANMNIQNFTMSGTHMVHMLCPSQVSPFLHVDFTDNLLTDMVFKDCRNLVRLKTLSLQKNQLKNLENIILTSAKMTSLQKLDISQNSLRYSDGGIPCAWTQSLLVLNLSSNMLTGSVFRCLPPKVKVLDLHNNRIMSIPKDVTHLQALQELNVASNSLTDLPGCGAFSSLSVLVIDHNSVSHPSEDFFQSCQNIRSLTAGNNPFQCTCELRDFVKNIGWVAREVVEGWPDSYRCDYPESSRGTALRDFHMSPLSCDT
T1 sequence (Q9QUN7 25-587 limits assumed): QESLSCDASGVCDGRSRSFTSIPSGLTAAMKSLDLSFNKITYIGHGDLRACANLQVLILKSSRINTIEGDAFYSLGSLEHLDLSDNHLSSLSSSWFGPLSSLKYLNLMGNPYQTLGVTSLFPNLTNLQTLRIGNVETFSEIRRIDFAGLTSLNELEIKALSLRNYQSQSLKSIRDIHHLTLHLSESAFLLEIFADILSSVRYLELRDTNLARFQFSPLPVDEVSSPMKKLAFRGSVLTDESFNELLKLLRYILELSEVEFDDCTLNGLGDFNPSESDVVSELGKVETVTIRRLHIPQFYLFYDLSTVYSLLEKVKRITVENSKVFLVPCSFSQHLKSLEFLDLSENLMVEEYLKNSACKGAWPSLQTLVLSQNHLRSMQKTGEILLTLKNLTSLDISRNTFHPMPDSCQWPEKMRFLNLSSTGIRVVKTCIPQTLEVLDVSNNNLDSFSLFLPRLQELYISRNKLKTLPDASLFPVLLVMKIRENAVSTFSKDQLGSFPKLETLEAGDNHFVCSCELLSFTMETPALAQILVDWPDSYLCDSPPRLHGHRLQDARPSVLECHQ
Test: Label-free hybridized 'TLR1 and 2' sensor, EIS detection of Pam3CSK4 (Example 7)
Assay type: binding
Conditions: for delta Rct % / Rct: 'TLR1 and 2' sensor; for delta Rct %: 20 minutes; for Rct: before immersion 5472
Experimental: TLR sensors were prepared using fresh, cleaned gold electrodes. The electrodes were immersed in a 2 mM 1-lipoic acid n-hydroxysuccinimide ester (LPA) ethanol solution for 48 hours at 277 K. The electrodes were then rinsed thoroughly using absolute ethanol and blown dry under nitrogen before incubation in 200 μg/ml rmTLR1, 200 μg/ml rmTLR2 and 200 μg/ml ‘rmTLR1 and 2’ mixture for 72 hours at 277 K. The rmTLR1 and 2 mixture was prepared by mixing 200 μg/ml rmTLR1 and 200 μg/ml rmTLR2 with a volume ratio of 1:1. The final concentration of each component was 100 μg/ml and the total concentration of the combined TLR protein content was 200 μg/ml. Following the supplier's recommended conditions, all TLRs were prepared in PBS buffer (pH˜7.4). The electrodes were rinsed with an excess volume of Milli-Q water and blown dry under nitrogen. An ethanolamine-tris buffer solution was prepared by dissolving 1.2 g of ethanolamine and 0.121 g of Tris base in 20 mL of water, the pH was adjusted to 8.4 using hydrochloric acid. TLR-immobilized electrodes were incubated in the ethanolamine solution for one hour at room temperature in order to block any remaining unreacted LPA amine sites. The fabricated sensors with immobilized, standalone rmTLR3, rmTLR4/MD-2 and rmTLR5, used for the selectivity test, were prepared using the same protocol described above.
Pam3CSK4 was dissolved in 10 mM HEPES aqueous buffer at pH˜7.4. The blocked rmTLR biosensors were incubated in Pam3CSK4 at various concentrations for 20 minutes. The electrodes were always washed thoroughly with same HEPES buffer (pH˜7.4) after the incubation.
All electrochemical measurements were carried out using a cell with a three-electrode configuration in an enclosed Faraday cage. CV and EIS measurements were completed using a CHI-660b potentiostat (CH Instruments, Austin, Tex.). rmTLR-modified gold electrodes and platinum (Pt) wire were used as the working electrode and the counter electrode, respectively. A reference electrode (Ag/AgCl/3.0M KCl) and a salt bridge, filled with an agar and 1M KNO3 aqueous solution, were inserted to minimize the diffusion of chloride ions into the electrolyte solution. The agar solution was prepared by dissolving 2.0 grams of agar and 10.1 g KNOB in 100 mL of water. The CV and EIS electrolyte was made in a 10 mM HEPES aqueous buffer at pH˜7.4, which consisted of a 5 mM K4Fe(CN)6/5 mM K3Fe(CN)6 as a redox couple with 1M of NaClO4 as the supporting electrolyte. For consistency, the electrochemical measurements were carried out with open-circuit potentials. EIS experiments were conducted in the frequency range of 100,000 to 0.1 Hz with an amplitude of 5 mV. The experimental EIS curves were evaluated to determine the film resistance using ZSimpWin 2.0 software.

With Pam3CSK4 the “delta Rct %” value (5 μM) was 37±11%, the “delta Rct %” value (25 μM) was 125±19% and the “delta Rct %” value (50 μM) was 199±26%. For the same substance, the Rct (after 5 μM) was 5688 Ω · cm^2, the Rct (after 10 μM) was 7147 Ω · cm^2 and the Rct (after 25 μM) was 11260 Ω · cm^2. The Rct (after 50 μM) was 15620 Ω · cm^2 and the limit of detection (hybridized 'TLR1 and 2' sensor) was 5 µM.
